Laboratory results reported in publication PMC6934184, “Selective DNA-PKcs inhibition extends the therapeutic index of localized radiotherapy and chemotherapy” (The Journal of Clinical Investigation, 2019).

Biological target: T1, EPHB4 (Homo sapiens, UniProt P54760)
T1 construct: purchased Thermo Fisher Scientific (Life Technologies) SelectScreen
Assay: SelectScreen Z'LYTE
Format: biochemical
How it was run: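 SelectScreen broad panel; activity (Z'LYTE, Adapta) plus binding formats. ATP: Km app for CSF1R Z'LYTE; 10 for CAMK1 Adapta. Readout = % per kinase.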

T1 sequence (P54760 16-987): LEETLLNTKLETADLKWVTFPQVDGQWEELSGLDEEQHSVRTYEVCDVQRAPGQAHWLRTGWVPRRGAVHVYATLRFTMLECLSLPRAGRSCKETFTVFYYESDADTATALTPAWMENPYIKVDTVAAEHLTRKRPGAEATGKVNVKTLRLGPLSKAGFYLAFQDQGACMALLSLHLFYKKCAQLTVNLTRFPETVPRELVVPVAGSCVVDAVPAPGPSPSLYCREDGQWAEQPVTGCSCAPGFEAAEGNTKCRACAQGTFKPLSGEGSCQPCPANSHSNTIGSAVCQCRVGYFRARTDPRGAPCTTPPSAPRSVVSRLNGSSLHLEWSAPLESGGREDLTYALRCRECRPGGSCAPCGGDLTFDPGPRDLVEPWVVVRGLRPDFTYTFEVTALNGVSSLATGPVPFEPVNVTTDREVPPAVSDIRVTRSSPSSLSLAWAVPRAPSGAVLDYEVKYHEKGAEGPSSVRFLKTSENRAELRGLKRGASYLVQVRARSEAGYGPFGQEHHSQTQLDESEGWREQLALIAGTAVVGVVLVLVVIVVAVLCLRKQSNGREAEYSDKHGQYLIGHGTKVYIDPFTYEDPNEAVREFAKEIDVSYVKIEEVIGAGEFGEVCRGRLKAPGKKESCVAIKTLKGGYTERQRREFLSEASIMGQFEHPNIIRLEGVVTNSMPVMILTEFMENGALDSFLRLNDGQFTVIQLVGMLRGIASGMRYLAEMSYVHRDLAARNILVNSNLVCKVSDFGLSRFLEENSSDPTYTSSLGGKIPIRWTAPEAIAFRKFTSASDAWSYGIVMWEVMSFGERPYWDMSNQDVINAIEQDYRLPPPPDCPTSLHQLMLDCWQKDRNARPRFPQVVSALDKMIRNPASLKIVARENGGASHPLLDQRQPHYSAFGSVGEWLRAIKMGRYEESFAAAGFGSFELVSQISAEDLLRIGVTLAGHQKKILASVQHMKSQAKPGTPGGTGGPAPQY

Structure (SMILES): CN(C(=O)CN1CCOCC1)c1ccc2sc3c(-c4cccc5c(=O)cc(N6CC7CCC(C6)O7)oc45)cccc3c2c1 [NU5455]
- inhibition at 1 µM: -5.3%
